Source: patent US20220213061A9, “HETEROCYCLIC COMPOUNDS FOR MODULATING NR2F6” (TES Pharma S.r.l., priority 2020, published 2022)
Where a name gives a salt, the structure may show the parent alone.

Biological target: T1, recombinant human NR2F6 protein (Homo sapiens, UniProt P10588)
T1 sequence (P10588 1-404): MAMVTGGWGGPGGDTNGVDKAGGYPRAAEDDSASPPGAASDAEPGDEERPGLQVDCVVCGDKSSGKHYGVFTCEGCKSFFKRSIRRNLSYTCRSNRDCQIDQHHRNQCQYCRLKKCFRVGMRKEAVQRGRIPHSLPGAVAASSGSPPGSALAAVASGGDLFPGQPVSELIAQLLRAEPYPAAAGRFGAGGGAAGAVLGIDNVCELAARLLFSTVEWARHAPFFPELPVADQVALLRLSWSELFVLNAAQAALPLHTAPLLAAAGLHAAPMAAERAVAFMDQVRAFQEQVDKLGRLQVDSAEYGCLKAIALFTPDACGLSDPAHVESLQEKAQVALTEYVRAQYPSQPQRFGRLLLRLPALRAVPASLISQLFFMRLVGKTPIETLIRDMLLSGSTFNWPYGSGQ
Experiment: Biochemical NR2F6 binding assay (EnSpire label-free)
Conditions: label-free binding to immobilized purified recombinant human NR2F6; ligands 1 nM to 100 uM, 1% DMSO
Experimental: Purified recombinant human NR2F6 protein was dissolved in immobilization buffer at pH 4.5 and then immobilized in EnSpire-LFB High-Sensitivity User-Activated Plates at the concentration of 50 μg/well plate and left in incubation for 16 h at 4° C. Wells with only immobilization buffer were used as negative control to check the protein coating efficiency. NR2F6 ligands were resuspended in DMSO at the concentration of 10 mM, then dispensed into a plate containing assay buffer at concentrations ranging from 1 nM to 100 uM using an HP-dispenser. DMSO was normalized at the 1% of volume of each well. The final readings were taken over a period of 30 minutes. The label-free responses were measured as shifts in reflected wavelength and are expressed in picometers (pm). Results were analyzed using the EnSpire label-free user interface software, and EC50 and graphs were generated using GraphPad PRISM software. In the tables below, A is <1 μM; B is 1 to 10 μM; C is 10 to 50 μM; and D is >50 μM.

Compound | EC50 [µM]
S=C(Nc1cccc2cnccc12)O[C@@H]1CNC[C@H]1c1ccccc1 (racemic) [Compound I-2, (±)-trans-O-(4-Phenylpyrrolidin-3-yl) isoquinolin-5-ylcarbamothioate] | 1 to 10
S=C(Nc1cccc2cnccc12)O[C@@H]1CNC[C@@H]1c1ccccc1 (racemic) [Compound I-3, (±)-cis-O-(4-Phenylpyrrolidin-3-yl) isoquinolin-5-ylcarbamothioate] | 10 to 50
O=C(Nc1cccc2cnccc12)O[C@@H]1CNC[C@H]1c1ccccc1 (racemic) [Compound I-4, (±)-trans-4-Phenylpyrrolidin-3-yl isoquinolin-5-ylcarbamate] | 1 to 10
c1ccc([C@@H]2CNC[C@H]2Oc2nc(-c3cccnc3)cs2)cc1 (racemic) [Compound I-5, (±)-trans-3-{2-[(4-Phenylpyrrolidin-3-yl)oxy]-1,3-thiazol-4-yl}pyridine] | 1 to 10
S=C(Nc1cccc2cnccc12)N[C@@H]1CN(Cc2ccccc2)C[C@H]1c1ccccc1 (racemic) [Compound I-6, (±)-trans-1-Isoquinolin-5-yl-3-(1-benzyl-4-phenylpyrrolidin-3-yl)thiourea] | 1 to 10
S=C(Nc1cccc2cnccc12)N[C@@H]1CNC[C@H]1c1ccccc1 (racemic) [Compound I-7, (±)-trans-1-Isoquinolin-5-yl-3-(4-phenylpyrrolidin-3-yl)thiourea] | 1 to 10
O=S(=O)(N[C@@H]1CNC[C@H]1c1ccccc1)c1cccc2cnccc12 (racemic) [Compound I-8, (±)-trans-N-(4-Phenylpyrrolidin-3-yl)isoquinoline-5-sulfonamide] | > 50
O=C(N[C@@H]1CNC[C@H]1c1ccccc1)c1cccc2cnccc12 (racemic) [Compound I-9, (±)-trans-N-(4-Phenylpyrrolidin-3-yl)isoquinoline-5-carboxamide] | 1 to 10
c1ccc([C@H]2CNC[C@@H]2Nc2nc3cnccc3s2)cc1 (racemic) [Compound I-10, (±)-trans-N-[4-Phenylpyrrolidin-3-yl][1,3]thiazolo[4,5-c]pyridin-2-amine hydrochloride] | > 50
O=C(Nc1cccc(-c2cccnc2)c1)[C@@H]1CNC[C@H]1c1ccccc1 (racemic) [Compound I-11, (±)-trans-4-Phenyl-N-[3-(pyridin-3-yl)phenyl]pyrrolidine-3-carboxamide] | 1 to 10
O=C(Nc1nccc2ccccc12)[C@@H]1CNC[C@H]1c1ccccc1 (racemic) [Compound I-12, (±)-trans-N-(Isoquinolin-1-yl)-4-phenylpyrrolidine-3-carboxamide dihydrochloride] | > 50
O=C(Nc1cccc(-c2ccccc2)c1)[C@@H]1CNC[C@H]1c1ccccc1 (racemic) [Compound I-13, (±)-trans-N-(Biphenyl-3-yl)-4-phenylpyrrolidine-3-carboxamide] | 1 to 10
O=C(Nc1cc2ccccc2cn1)[C@@H]1CNC[C@H]1c1ccccc1 (racemic) [Compound I-14, (±)-trans-N-(Isoquinolin-3-yl)-4-phenylpyrrolidine-3-carboxamide dihydrochloride] | 1 to 10
Cc1cc2c(NC(=O)[C@@H]3CNC[C@H]3c3ccccc3)cccc2cn1 (racemic) [Compound I-15, (±)-trans-N-(3-Methylisoquinolin-5-yl)-4-phenylpyrrolidine-3-carboxamide dihydrochloride] | 1 to 10
O=C(Nc1cccc2ccccc12)[C@@H]1CNC[C@H]1c1ccccc1 (racemic) [Compound I-16, (±)-trans-N-(Naphthalen-1-yl)-4-phenylpyrrolidine-3-carboxamide hydrochloride] | 1 to 10
O=C(Nc1cccc2ncccc12)[C@@H]1CNC[C@H]1c1ccccc1 (racemic) [Compound I-17, (±)-trans-4-Phenyl-N-(quinolin-5-yl)pyrrolidine-3-carboxamide dihydrochloride] | 10 to 50
O=C(Nc1cccc2cccnc12)[C@@H]1CNC[C@H]1c1ccccc1 (racemic) [Compound I-18, (±)-trans-4-Phenyl-N-(quinolin-8-yl)pyrrolidine-3-carboxamide dihydrochloride] | 10 to 50
O=C(Nc1cccnc1)[C@H]1CNC[C@@H]1c1ccccc1 (racemic) [Compound I-19, (±)-trans-4-Phenyl-N-(pyridin-3-yl)pyrrolidine-3-carboxamide dihydrochloride] | > 50

Compound | EC50 [µM]
O=C(Nc1ncc(-c2cccnc2)s1)[C@@H]1CNC[C@H]1c1ccccc1 (racemic) [Compound I-20, (±)-trans-4-Phenyl-N-[5-(pyridin-3-yl)-1,3-thiazol-2-yl]pyrrolidine-3-carboxamide] | 1 to 10
O=C(Nc1cccc2cnccc12)[C@@H]1CNC[C@H]1c1ccccc1 (racemic) [Compound I-21, (±)-trans-N-(Isoquinolin-5-yl)-4-phenylpyrrolidine-3-carboxamide dihydrochloride] | 1 to 10
O=C(Nc1cccc(-c2ccccc2)c1)[C@@H]1CNC[C@H]1c1cccs1 (racemic) [Compound I-22, (±)-trans-N-(Biphenyl-3-yl)-4-(thiophen-2-yl)pyrrolidine-3-carboxamide hydrochloride] | < 1
O=C(Nc1cccc(-c2ccccc2)c1)[C@@H]1CNC[C@H]1c1ccc(F)cc1 (racemic) [Compound I-23, (±)-trans-N-(Biphenyl-3-yl)-4-(4-fluorophenyl)pyrrolidine-3-carboxamide hydrochloride] | 1 to 10
O=C(Nc1ccc(-c2ccccc2)cc1)[C@@H]1CNC[C@H]1c1ccccc1 (racemic) [Compound I-24, (±)-trans-N-(Biphenyl-4-yl)-4-phenylpyrrolidine-3-carboxamide hydrochloride] | 1 to 10
O=C(Nc1ccc(-c2cccnc2)cc1)[C@@H]1CNC[C@H]1c1ccccc1 (racemic) [Compound I-25, (±)-trans-4-Phenyl-N-[4-(pyridin-3-yl)phenyl]pyrrolidine-3-carboxamide dihydrochloride] | 1 to 10
O=C(Nc1cccc(-c2ccc(F)nc2)c1)[C@@H]1CNC[C@H]1c1ccccc1 (racemic) [Compound I-26, (±)-trans-N-[3-(6-Fluoropyridin-3-yl)phenyl]-4-phenylpyrrolidine-3-carboxamide] | 1 to 10
O=C(Nc1cccc(-c2ccccc2)c1)[C@@H]1CNC[C@H]1c1cccc(F)c1 (racemic) [Compound I-27, (±)-trans-N-(Biphenyl-3-yl)-4-(3-fluorophenyl)pyrrolidine-3-carboxamide hydrochloride] | > 50
O=C(Nc1cccc(-c2ccccc2)c1)[C@@H]1CNC[C@H]1c1ccccc1F (racemic) [Compound I-28, (±)-trans-4-(2-Fluorophenyl)-pyrrolidine-3-carboxylic acid biphenyl-3-ylamide hydrochloride] | > 50
COc1ccc([C@@H]2CNC[C@H]2C(=O)Nc2cccc(-c3ccccc3)c2)cc1 (racemic) [Compound I-45, (±)-trans-N-(Biphenyl-3-yl)-4-(4-methoxyphenyl)pyrrolidine-3-carboxamide hydrochloride] | > 50
CN1C[C@@H](C(=O)Nc2cccc(-c3cccnc3)c2)[C@H](c2ccccc2)C1 (racemic) [Compound I-46, (±)-trans-1-Methyl-4-phenyl-N-[3-(pyridin-3-yl)phenyl]pyrrolidine-3-carboxamide] | > 50
CN(C(=O)[C@@H]1CNC[C@H]1c1ccccc1)c1cccc(-c2cccnc2)c1 (racemic) [Compound I-47, (±)-trans-N-Methyl-4-phenyl-N-[3-(pyridin-3-yl)phenyl]pyrrolidine-3-carboxamide] | > 50
O=C([C@@H]1CNC[C@H]1c1ccccc1)N1CC(c2cccnc2)C1 (racemic) [Compound I-48, (±)-trans-(4-Phenylpyrrolidin-3-yl)[3-(pyridin-3-yl)azetidin-1-yl]methanone dihydrochloride] | > 50
O=C(Nc1cccc(-c2cccnc2)c1)[C@@H]1CNC[C@H]1c1cccs1 (racemic) [Compound I-49, (±)-trans-N-[3-(Pyridin-3-yl)phenyl]-4-(thiophen-2-yl)pyrrolidine-3-carboxamide dihydrochloride] | > 50
O=C(Nc1cccc(-c2cccnc2)c1)[C@@H]1CNC[C@H]1C1CCOCC1 (racemic) [Compound I-50, (±)-trans-N-[3-(Pyridin-3-yl)phenyl]-4-(tetrahydro-2H-pyran-4-yl)pyrrolidine-3-carboxamide dihydrochloride] | > 50
O=C(Nc1cccc(Oc2cccnc2)c1)[C@@H]1CNC[C@H]1c1ccccc1 (racemic) [Compound I-52, dihydrochloride] | > 50
O=C(Nc1cccc(-c2cncnc2)c1)[C@@H]1CNC[C@H]1c1ccccc1 (racemic) [Compound I-53, (±)-trans-4-Phenyl-N-[3-(pyrimidin-5-yl)phenyl]pyrrolidine-3-carboxamide trihydrochloride] | > 50
